Measurements as given in patent US10450306B2, “Isoxazole analogs as FXR agonists and methods of use thereof” (Enanta Pharmaceuticals, Inc., priority 2016, dated 2019).

Target: T1, human FXR (NR1H4) (Homo sapiens, UniProt Q96RI1)
T1 construct: host or cells: CHO (Chinese hamster ovary) reporter cells
T1 sequence (Q96RI1 1-486): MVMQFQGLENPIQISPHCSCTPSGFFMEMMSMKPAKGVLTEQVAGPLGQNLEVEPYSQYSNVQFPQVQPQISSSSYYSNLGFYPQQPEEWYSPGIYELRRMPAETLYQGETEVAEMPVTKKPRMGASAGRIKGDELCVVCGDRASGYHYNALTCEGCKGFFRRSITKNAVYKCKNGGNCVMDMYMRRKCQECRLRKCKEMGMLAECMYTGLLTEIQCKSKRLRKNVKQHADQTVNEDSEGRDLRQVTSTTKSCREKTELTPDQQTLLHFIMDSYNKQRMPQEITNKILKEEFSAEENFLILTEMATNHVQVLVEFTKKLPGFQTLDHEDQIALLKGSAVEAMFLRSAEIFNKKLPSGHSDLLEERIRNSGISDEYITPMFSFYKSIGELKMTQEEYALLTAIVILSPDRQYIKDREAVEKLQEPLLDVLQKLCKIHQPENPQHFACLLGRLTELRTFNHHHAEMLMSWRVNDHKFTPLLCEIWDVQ
Assay: Human FXR (NR1H4) Assay: Gal4 promoter driven luciferase reporter transactivation in CHO cells (Indigo Bioscience kit IB00601); on Efficacy (%): efficacy normalized to CDCA set as 100%
Type: cell-based
Settings: for Emax: CHO, read-out: Efficacy (%); for EC50: Human FXR (NR1H4) reporter assay, potency ranges
Description: Human FXR (NR1H4) Assay Determination of a ligand mediated Gal4 promoter driven transactivation to quantify ligand binding mediated activation of FXR. FXR Reporter Assay kit purchased from Indigo Bioscience (Catalogue number: IB00601) to determine the potency and efficacy of compound developed by Enanta that can induce FXR activation. The principle application of this reporter assay system is to quantify functional activity of human FXR. The assay utilizes non-human mammalian cells, CHO (Chinese hamster ovary) cells engineered to express human NR1H4 protein (referred to as FXR). Reporter cells also incorporate the cDNA encoding beetle luciferase which catalyzes the substrates and yields photon emission. Luminescence intensity of the reaction is quantified using a plate-reading luminometer, Envision. Reporter Cells include the luciferase reporter gene functionally linked to an FXR responsive promoter. Thus, quantifying changes in luciferase expression in the treated reporter cells provides a sensitive surrogate measure of the changes in FXR activity. […] The assay is according to the manufacturer's instructions. In brief, the assay was performed in white, 96 well plates using final volume of 100 ul containing cells with different doses of compounds. Retrieve Reporter Cells from −80° C. storage. Perform a rapid thaw of the frozen cells by transferring a 10 ml volume of 37° C. cell recovery medium into the tube of frozen cells. Recap the tube of Reporter Cells and immediately place it in a 37° C. water bath for 5-10 minutes. Retrieve the tube of Reporter Cell Suspension from the water bath. Sanitize the outside surface of the tube with a 70% alcohol swab, and then transfer it into the cell culture hood. Dispense 90 μl of cell suspension into each well of the 96-well Assay Plate. Transfer the plate into 37° C. incubator, allowing the cells adherent to the bottom of the well. Dilute compounds in Dilution Plate (DP), and administrate to cells at Assay Plate (AP). DMSO content of the samples was kept at 0.2%. Cells were incubated for additional 22 hours before luciferase activities were measured. Thirty minutes before intending to quantify FXR activity, remove Detection Substrate and Detection Buffer from the refrigerator and place them in a low-light area so that they may equilibrate to room temperature. Remove the plate's lid and discard all media contents by ejecting it into an appropriate waste container. Gently tap the inverted plate onto a clean absorbent paper towel to remove residual droplets. Cells will remain tightly adhered to well bottoms. Add 100 ul of luciferase detection reagent to each well of the assay plate. Allow the assay plate to rest at room temperature for at least 5 minutes following the addition of LDR. Set the instrument (Envision) to perform a single 5 second “plate shake” prior to reading the first assay well. Read time may be 0.5 second (500 mSec) per well.

SMILES	Emax	EC50
COC(=O)c1cc(OC(F)F)c2nc(N3C4CCC3CC(NCc3c(-c5c(Cl)cccc5Cl)noc3C3CC3)C4)sc2c1 (centres unmarked) [Example 189]	73%	1 to 100 nM
O=C(O)c1cc(OC(F)F)c2nc(N3[C@@H]4CC[C@H]3C[C@@H](NCc3c(-c5c(Cl)cccc5Cl)noc3C3CC3)C4)sc2c1 [Example 190, 2-((1R,3r,5S)-3-(((5-cyclopropyl-3-(2,6-dichlorophenyl)isoxazol-4-yl)methyl)amino)-8-azabicyclo[3.2.1]octan-8-yl)-4-(difluoromethoxy)benzo[d]thiazole-6-carboxylic acid]	96%	< 1 nM
Cc1cc2nc(N3C4CCC3CC(NCc3c(-c5c(Cl)cccc5Cl)noc3C3CC3)C4)sc2cc1C(=O)O (centres unmarked) [Example 194]	81%	< 1 nM
Cc1c(C(=O)O)ccc2nc(N3C4CCC3CC(NCc3c(-c5c(Cl)cccc5Cl)noc3C3CC3)C4)sc12 (centres unmarked) [Example 196]	83.5%	1 to 100 nM
COC(=O)c1ccc2nc(N3C4CCC3CC(NCc3c(-c5c(Cl)cccc5Cl)noc3C3CC3)C4)c(OC)nc2c1 (centres unmarked) [Example 197]	115%	100 to 1000 nM
COc1nc2cc(C(=O)O)ccc2nc1N1C2CCC1CC(NCc1c(-c3c(Cl)cccc3Cl)noc1C1CC1)C2 (centres unmarked) [Example 198]	140%	1 to 100 nM
COC(=O)c1ccc2nc(N3C4CCC3CC(NCc3c(-c5c(Cl)cccc5Cl)noc3C3CC3)C4)c(Cl)nc2c1 (centres unmarked) [Example 199]	58%	100 to 1000 nM
O=C(NCCS(=O)(=O)O)c1cc(F)c2nc(N3C4CCC3CC(NCc3c(-c5c(Cl)cccc5Cl)noc3C3CC3)C4)sc2c1 (centres unmarked) [Example 200-1]	10%	1 to 100 nM
COC(=O)c1cc(OC(C)C)c2nc(N3CCC(NCc4c(-c5c(Cl)cccc5Cl)noc4C4CC4)CC3)sc2c1 [Example 200-3]	35%	100 to 1000 nM
CC(C)Oc1cc(C(=O)O)cc2sc(N3CCC(NCc4c(-c5c(Cl)cccc5Cl)noc4C4CC4)CC3)nc12 [Example 200-4]	106%	1 to 100 nM
COC(=O)c1cc(F)c2nc(N3CCC(NCc4c(-c5c(Cl)cccc5Cl)noc4C4CC4)CC3)sc2c1 [Example 200-5]	72%	100 to 1000 nM
O=C(O)c1cc(F)c2nc(N3CCC(NCc4c(-c5c(Cl)cccc5Cl)noc4C4CC4)CC3)sc2c1 [Example 200-6]	86.5%	1 to 100 nM
COC(=O)c1cc2sc(N3C4CCC3CC(NCc3c(-c5c(Cl)cccc5Cl)noc3C3CC3)C4)nc2cc1OC (centres unmarked) [Example 200-7]	74.5%	1 to 100 nM
COc1cc2nc(N3C4CCC3CC(NCc3c(-c5c(Cl)cccc5Cl)noc3C3CC3)C4)sc2cc1C(=O)O (centres unmarked) [Example 200-8]	73.5%	< 1 nM
CCOc1cc(C(=O)OC)cc2sc(N3C4CCC3CC(NCc3c(-c5c(Cl)cccc5Cl)noc3C3CC3)C4)nc12 (centres unmarked) [Example 200-9]	81%	1 to 100 nM
CCOc1cc(C(=O)O)cc2sc(N3C4CCC3CC(NCc3c(-c5c(Cl)cccc5Cl)noc3C3CC3)C4)nc12 (centres unmarked) [Example 200-10]	92.5%	< 1 nM
COc1cc(C(=O)NCC(=O)O)cc2sc(N3C4CCC3CC(NCc3c(-c5c(Cl)cccc5Cl)noc3C3CC3)C4)nc12 (centres unmarked) [Example 200-11]	75%	1 to 100 nM
COc1cc(C(=O)NCCS(=O)(=O)O)cc2sc(N3C4CCC3CC(NCc3c(-c5c(Cl)cccc5Cl)noc3C3CC3)C4)nc12 (centres unmarked) [Example 200-12]	16.5%	1 to 100 nM
COC(=O)c1cc(OC(C)C)c2nc(N3C4CCC3CC(NCc3c(-c5c(Cl)cccc5Cl)noc3C3CC3)C4)sc2c1 (centres unmarked) [Example 200-13]	96%	< 1 nM
CC(C)Oc1cc(C(=O)O)cc2sc(N3C4CCC3CC(NCc3c(-c5c(Cl)cccc5Cl)noc3C3CC3)C4)nc12 (centres unmarked) [Example 200-14]	93.5%	< 1 nM

SMILES	Emax	EC50
COC(=O)c1cc2sc(N3C4CCC3CC(NCc3c(-c5c(Cl)cccc5Cl)noc3C3CC3)C4)nc2cc1F (centres unmarked) [Example 200-15]	75.8%	1 to 100 nM
O=C(O)c1cc2sc(N3C4CCC3CC(NCc3c(-c5c(Cl)cccc5Cl)noc3C3CC3)C4)nc2cc1F (centres unmarked) [Example 200-16]	109%	1 to 100 nM
COC(=O)c1cnc2nc(N3C4CCC3CC(NCc3c(-c5c(Cl)cccc5Cl)noc3C3CC3)C4)sc2n1 (centres unmarked) [Example 200-17]	51.5%	1 to 100 nM
O=C(O)c1cnc2nc(N3C4CCC3CC(NCc3c(-c5c(Cl)cccc5Cl)noc3C3CC3)C4)sc2n1 (centres unmarked) [Example 200-18]	91.3%	1 to 100 nM
COC(=O)c1cc2sc(N3C4CCC3CC(NCc3c(-c5c(Cl)cccc5Cl)noc3C3CC3)C4)nc2cc1Br (centres unmarked) [Example 200-19]	50.5%	1 to 100 nM
COC(=O)c1ccc2nc(N3C4CCC3CC(NCc3c(-c5c(Cl)cccc5Cl)noc3C3CC3)C4)sc2c1Br (centres unmarked) [Example 200-21]	58%	1 to 100 nM
COC(=O)c1cc2sc(N3C4CCC3CC(NCc3c(-c5c(Cl)cccc5Cl)noc3C3CC3)C4)nc2cc1-c1ccccc1 (centres unmarked) [Example 200-23]	76.5%	1 to 100 nM
O=C(O)c1cc2sc(N3C4CCC3CC(NCc3c(-c5c(Cl)cccc5Cl)noc3C3CC3)C4)nc2cc1-c1ccccc1 (centres unmarked) [Example 200-24]	96.2%	1 to 100 nM
COC(=O)c1ccc2nc(N3C4CCC3CC(NCc3c(-c5c(Cl)cccc5Cl)noc3C3CC3)C4)sc2c1-c1ccccc1 (centres unmarked) [Example 200-25]	58.5%	1 to 100 nM
COC(=O)c1cc2sc(N3C4CCC3CC(NCc3c(-c5c(Cl)cccc5Cl)noc3C3CC3)C4)nc2c2ccccc12 (centres unmarked) [Example 200-27]	28.3%	1 to 100 nM
O=C(O)c1cc2sc(N3C4CCC3CC(NCc3c(-c5c(Cl)cccc5Cl)noc3C3CC3)C4)nc2c2ccccc12 (centres unmarked) [Example 200-28]	132%	< 1 nM
COC(=O)c1cc(C2CC2)c2nc(N3C4CCC3CC(NCc3c(-c5c(Cl)cccc5Cl)noc3C3CC3)C4)sc2c1 (centres unmarked) [Example 200-29]	94%	1 to 100 nM
O=C(O)c1cc(C2CC2)c2nc(N3C4CCC3CC(NCc3c(-c5c(Cl)cccc5Cl)noc3C3CC3)C4)sc2c1 (centres unmarked) [Example 200-30]	108%	< 1 nM
O=C(NS(=O)(=O)C1CC1)c1ccc2nc(N3C4CCC3CC(NCc3c(-c5c(Cl)cccc5Cl)noc3C3CC3)C4)sc2c1 (centres unmarked) [Example 201]	282%	< 1 nM
CC1(S(=O)(=O)NC(=O)c2ccc3nc(N4C5CCC4CC(NCc4c(-c6c(Cl)cccc6Cl)noc4C4CC4)C5)sc3c2)CC1 (centres unmarked) [Example 202]	279%	< 1 nM
O=C(NS(=O)(=O)N1CCCC1)c1ccc2nc(N3C4CCC3CC(NCc3c(-c5c(Cl)cccc5Cl)noc3C3CC3)C4)sc2c1 (centres unmarked) [Example 227]	256%	< 1 nM
O=C(NS(=O)(=O)N1CCCCC1)c1ccc2nc(N3C4CCC3CC(NCc3c(-c5c(Cl)cccc5Cl)noc3C3CC3)C4)sc2c1 (centres unmarked) [Example 228]	140%	1 to 100 nM
O=C(NS(=O)(=O)C1CCCC1)c1ccc2nc(N3C4CCC3CC(NCc3c(-c5c(Cl)cccc5Cl)noc3C3CC3)C4)sc2c1 (centres unmarked) [Example 231]	277%	< 1 nM
O=C(NS(=O)(=O)N1CCOCC1)c1ccc2nc(N3C4CCC3CC(NCc3c(-c5c(Cl)cccc5Cl)noc3C3CC3)C4)sc2c1 (centres unmarked) [Example 234]	146%	100 to 1000 nM
O=C(NS(=O)(=O)C(F)(F)F)c1ccc2nc(N3C4CCC3CC(NCc3c(-c5c(Cl)cccc5Cl)noc3C3CC3)C4)sc2c1 (centres unmarked) [Example 236]	75%	1 to 100 nM
